According to article PMC11995724, “Antibiotic target discovery by integrated phenotypic and activity-based profiling of electrophilic fragments” (Cell chemical biology, 2025):

Test: in vitro
Details: human, hek293t cells

Row | Compound | viability at 48 h, 25 µM [%]
1 | C=CC(=O)N(C1CCCC1)C(C)c1nnc2ccccn12 (centres unmarked) [2-B07, N-cyclopentyl-N-(1-{[1,2,4]triazolo[4,3-a]pyridin-3-yl}ethyl)prop-2-enamide] | 51.9
2 | C=CC(=O)N1CCC(C(=O)N2CCN(CC(C)C)C(=O)C2C)CC1 (centres unmarked) [2-B08, 3-methyl-1-(2-methylpropyl)-4-[1-(prop-2-enoyl)piperidine-4-carbonyl]piperazin-2-one] | 83.8
3 | C=CC(=O)NCC(=C)c1ccccc1 [2-B09, N-(2-phenylprop-2-en-1-yl)prop-2-enamide] | 57
4 | C=CC(=O)N1CCC(C(=O)NC(C)(c2noc(C)n2)C2CC2)CC1 (centres unmarked) [2-B10, N-[1-cyclopropyl-1-(5-methyl-1,2,4-oxadiazol-3-yl)ethyl]-1-(prop-2-enoyl)piperidine-4-carboxamide] | 79.8
5 | C=CC(=O)NCCC(=O)N1CCC(O)(c2c(F)cccc2F)CC1 [2-B11, N-{3-[4-(2,6-difluorophenyl)-4-hydroxypiperidin-1-yl]-3-oxopropyl}prop-2-enamide] | 60
6 | C=CC(=O)N1CCC(C(=O)NC2CCOC3(CCSCC3)C2)CC1 (centres unmarked) [2-B12, N-{1-oxa-9-thiaspiro[5.5]undecan-4-yl}-1-(prop-2-enoyl)piperidine-4-carboxamide] | 97.1
7 | C=CC(=O)NCCc1ccc(S(N)(=O)=O)cc1 [2-B13, N-[2-(4-sulfamoylphenyl)ethyl]prop-2-enamide] | 77.8
8 | C=CC(=O)N(C)CC(=O)NCc1nc2cc(C)ccc2n1C [2-B14, N-({[(1,5-dimethyl-1H-1,3-benzodiazol-2-yl)methyl]carbamoyl}methyl)-N-methylprop-2-enamide] | 37.9
9 | C=CC(=O)NCC1CCCc2nccn21 (centres unmarked) [2-B15, N-({5H,6H,7H,8H-imidazo[1,2-a]pyridin-5-yl}methyl)prop-2-enamide] | 76.8
10 | C=CC(=O)N1CCC(C(=O)N[C@@H](C)C(=O)NC)(c2ccccc2)CC1 [2-B16, (2S)-N-methyl-2-{[4-phenyl-1-(prop-2-enoyl)piperidin-4-yl]formamido}propanamide] | 87
11 | C=CC(=O)NCc1ccnc(OC2CCOCC2)c1 [2-B17, N-{[2-(oxan-4-yloxy)pyridin-4-yl]methyl}prop-2-enamide] | 69.9
12 | C=CC(=O)N(CC)CC(=O)N1CCn2c(nc(C)c2C)C1 [2-B18, N-(2-{2,3-dimethyl-5H,6H,7H,8H-imidazo[1,2-a]pyrazin-7-yl}-2-oxoethyl)-N-ethylprop-2-enamide] | 94.8
13 | C=CC(=O)N(C)Cc1cc2sccc2n1C [2-B19, N-methyl-N-({4-methyl-4H-thieno[3,2-b]pyrrol-5-yl}methyl)prop-2-enamide] | 75.1
14 | C=CC(=O)NCc1ccc(C(=O)N2CCCCC(SC)C2)cc1 (centres unmarked) [2-B20, N-({4-[3-(methylsulfanyl)azepane-1-carbonyl]phenyl}methyl)prop-2-enamide] | 57.3
15 | C=CC(=O)NC(Cn1ccccc1=O)c1ccccc1 (centres unmarked) [2-B21, N-[2-(2-oxo-1,2-dihydropyridin-1-yl)-1-phenylethyl]prop-2-enamide] | 72.3
16 | C=CC(=O)N(C)CC(=O)N1CCC(C)(c2nc(C)no2)CC1 [2-B22, N-methyl-N-{2-[4-methyl-4-(3-methyl-1,2,4-oxadiazol-5-yl)piperidin-1-yl]-2-oxoethyl}prop-2-enamide] | 57.9
17 | C=CC(=O)N1CCCC(n2cncn2)C1 (centres unmarked) [2-C03, 1-[3-(1H-1,2,4-triazol-1-yl)piperidin-1-yl]prop-2-en-1-one] | 90.2
18 | C=CC(=O)NCCC(=O)N1CCc2ncncc2C1 [2-C04, N-(3-oxo-3-{5H,6H,7H,8H-pyrido[4,3-d]pyrimidin-6-yl}propyl)prop-2-enamide] | 93.3
19 | C=CC(=O)NCCN1C(=O)SC(=Cc2ccc(Cl)cc2)C1=O [2-C05, N-(2-{5-[(4-chlorophenyl)methylidene]-2,4-dioxo-1,3-thiazolidin-3-yl}ethyl)prop-2-enamide] | 87.2
20 | C=CC(=O)N1CCOC2(CCS(=O)(=O)C2)C1 (centres unmarked) [2-C06, 9-(prop-2-enoyl)-6-oxa-2lambda6-thia-9-azaspiro[4.5]decane-2,2-dione] | 101
21 | C=CC(=O)N(Cc1cc(Cl)ccc1OC)C1CCCOCC1 (centres unmarked) [2-C07, N-[(5-chloro-2-methoxyphenyl)methyl]-N-(oxepan-4-yl)prop-2-enamide] | 95.3
22 | C=CC(=O)Nc1ccc(S(C)(=O)=O)cc1OCC [2-C08, N-(2-ethoxy-4-methanesulfonylphenyl)prop-2-enamide] | 0.998
23 | C=CC(=O)NCc1csc(C(C)(C)C)n1 [2-C09, N-[(2-tert-butyl-1,3-thiazol-4-yl)methyl]prop-2-enamide] | 86.1
24 | C=CC(=O)N1CCOCC2(CCOCC2)C1 [2-C10, 1-{3,8-dioxa-11-azaspiro[5.6]dodecan-11-yl}prop-2-en-1-one] | 85.4
25 | C=CC(=O)NC(Cn1cnc2ccccc21)c1ccc(F)cc1 (centres unmarked) [2-C11, N-[2-(1H-1,3-benzodiazol-1-yl)-1-(4-fluorophenyl)ethyl]prop-2-enamide] | 90.5

Row | Compound | viability at 48 h, 25 µM [%]
26 | C=CC(=O)NCCC(=O)N1CCCC1c1cc(C)on1 (centres unmarked) [2-C12, N-{3-[2-(5-methyl-1,2-oxazol-3-yl)pyrrolidin-1-yl]-3-oxopropyl}prop-2-enamide] | 81.3
27 | C=CC(=O)N(Cc1cnn(C(C)C)c1)c1ccc2nc(C)oc2c1 [2-C13, N-(2-methyl-1,3-benzoxazol-6-yl)-N-{[1-(propan-2-yl)-1H-pyrazol-4-yl]methyl}prop-2-enamide] | 185
28 | C=CC(=O)NC(c1noc(O)n1)C(C)(C)C (centres unmarked) [2-C14, N-[1-(5-hydroxy-1,2,4-oxadiazol-3-yl)-2,2-dimethylpropyl]prop-2-enamide] | 96.4
29 | C=CC(=O)Nc1cc(C)nn1-c1ccccc1F [2-C15, N-[1-(2-fluorophenyl)-3-methyl-1H-pyrazol-5-yl]prop-2-enamide] | 180
30 | C=CC(=O)N1CCC(O)(C(F)(F)C(N)=O)C1 (centres unmarked) [2-C16, 2,2-difluoro-2-[3-hydroxy-1-(prop-2-enoyl)pyrrolidin-3-yl]acetamide] | 98.2
31 | C=CC(=O)N1CCC(Cn2nc(C)cc2C)CC1 [2-C17, 1-{4-[(3,5-dimethyl-1H-pyrazol-1-yl)methyl]piperidin-1-yl}prop-2-en-1-one] | 182
32 | C=CC(=O)NCc1cc(-c2ccccc2OC)no1 [2-C18, N-{[3-(2-methoxyphenyl)-1,2-oxazol-5-yl]methyl}prop-2-enamide] | 72.8
33 | C=CC(=O)N1CCC(Cc2ccnn2C)CC1 [2-C19, 1-{4-[(1-methyl-1H-pyrazol-5-yl)methyl]piperidin-1-yl}prop-2-en-1-one] | 74.8
34 | C=CC(=O)Nc1ccc(C(=O)N2CCCCC2c2noc(C)n2)cc1 (centres unmarked) [2-C20, N-{4-[2-(5-methyl-1,2,4-oxadiazol-3-yl)piperidine-1-carbonyl]phenyl}prop-2-enamide] | 77.3
35 | C=CC(=O)N1CCCC1c1nc(N(C)C)no1 (centres unmarked) [2-C21, 1-{2-[3-(dimethylamino)-1,2,4-oxadiazol-5-yl]pyrrolidin-1-yl}prop-2-en-1-one] | 191
36 | C=CC(=O)Nc1cc(C(=O)CC)ccc1F [2-C22, N-(2-fluoro-5-propanoylphenyl)prop-2-enamide] | 84.8
37 | C=CC(=O)NCC(C)Cn1ccc(C)n1 (centres unmarked) [2-D03, N-[2-methyl-3-(3-methyl-1H-pyrazol-1-yl)propyl]prop-2-enamide] | 99.9
38 | C=CC(=O)N1CCC(C(=O)NCCc2c(C)n[nH]c2C)CC1 [2-D04, N-[2-(3,5-dimethyl-1H-pyrazol-4-yl)ethyl]-1-(prop-2-enoyl)piperidine-4-carboxamide] | 88.7
39 | C=CC(=O)NCCc1nc(C)cs1 [2-D05, N-[2-(4-methyl-1,3-thiazol-2-yl)ethyl]prop-2-enamide] | 70.3
40 | C=CC(=O)N1CCC(C(=O)N(C)Cc2ccc([S+](C)[O-])cc2)CC1 (centres unmarked) [2-D06, N-[(4-methanesulfinylphenyl)methyl]-N-methyl-1-(prop-2-enoyl)piperidine-4-carboxamide] | 76.4
41 | C=CC(=O)NC1(c2nccc(C(F)(F)F)n2)CC1 [2-D07, N-{1-[4-(trifluoromethyl)pyrimidin-2-yl]cyclopropyl}prop-2-enamide] | 74.9
42 | C=CC(=O)N1CCC(C(=O)Nc2ccc(N(C)C(C)=O)cc2)CC1 [2-D08, N-[4-(N-methylacetamido)phenyl]-1-(prop-2-enoyl)piperidine-4-carboxamide] | 81.5
43 | C=CC(=O)N(C)Cc1cncn1C [2-D09, N-methyl-N-[(1-methyl-1H-imidazol-5-yl)methyl]prop-2-enamide] | 61.2
44 | C=CC(=O)N1CCC(C(=O)N2CCC(C(=O)NC3CC3)CC2)CC1 [2-D10, N-cyclopropyl-1-[1-(prop-2-enoyl)piperidine-4-carbonyl]piperidine-4-carboxamide] | 76.9
45 | C=CC(=O)NCc1cnc2ccsc2c1 [2-D11, N-({thieno[3,2-b]pyridin-6-yl}methyl)prop-2-enamide] | 74.3
46 | C=CC(=O)N1CCC(C(=O)N2CCC[C@H]2c2ncn[nH]2)CC1 [2-D12, 1-{4-[(2S)-2-(1H-1,2,4-triazol-5-yl)pyrrolidine-1-carbonyl]piperidin-1-yl}prop-2-en-1-one] | 81.3
47 | C=CC(=O)N(Cc1cn(CC)nc1C)C1CC1 [2-D13, N-cyclopropyl-N-[(1-ethyl-3-methyl-1H-pyrazol-4-yl)methyl]prop-2-enamide] | 76.3
48 | C=CC(=O)N1CCC(C(=O)NCC(C)(C)C2(O)CCCC2)CC1 [2-D14, N-[2-(1-hydroxycyclopentyl)-2-methylpropyl]-1-(prop-2-enoyl)piperidine-4-carboxamide] | 76.9
49 | C=CC(=O)NC1(C(N)=O)Cc2ccccc2C1 [2-D15, 2-(prop-2-enamido)-2,3-dihydro-1H-indene-2-carboxamide] | 69.7
50 | C=CC(=O)Nc1ccc(C(=O)N2CCC3(CC2)OCCCO3)cc1 [2-D16, N-(4-{1,5-dioxa-9-azaspiro[5.5]undecane-9-carbonyl}phenyl)prop-2-enamide] | 49.1
